{"source": "patent US20070249655A1", "about": "“4-Substituted-1,5-Dihydro-Pyrido[3,2-B]Indol-2-Ones” (priority 2004, published 2007)", "format_in_all_cases": "cell-based", "key": {"[1]": {"system": "wild type laboratory HIV strain (HIV-1 strain LAI)", "assay": "Antiviral cellular assay (MT4 cells, MTT), wild type", "description": "The compounds of the present invention were examined for anti-viral activity in a cellular assay. […] The cellular assay was performed according to the following procedure.\n(§1) HIV- or mock-infected MT4 cells were incubated for five days in the presence of various concentrations of the inhibitor. At the end of the incubation period, the replicating virus in the control cultures has killed all HIV-infected cells in the absence of any inhibitor. Cell viability was determined by measuring the concentration of MTT, a yellow, water soluble tetrazolium dye that is converted to a purple, water insoluble formazan in the mitochondrial of living cells only. Upon solubilization of the resulting formazan crystals with isopropanol, the absorbance of the solution was monitored at 540 nm. The values correlate directly to the number of living cells remaining in the culture at the completion of the five day incubation. The inhibitory activity of the compound was monitored on the virus-infected cells and was expressed as EC50 and EC90. These values represent the amount of the compound required to protect 50% and 90%, respectively, of the cells from the cytopathogenic effect of the virus. The toxicity of the compound was measured on the mock-infected cells and was expressed as CC50, which represents the concentration of compound required to inhibit the growth of the cells by 50%. The selectivity index (SI) (ratio CC50/EC50) is an indication of the selectivity of the anti-HIV activity of the inhibitor. Wherever results are reported as e.g. pEC50 or pCC50 values, the result is expressed as the negative logarithm of the result expressed as EC50 or CC50 respectively."}, "[2]": {"system": "HIV strain A (Y181C)", "assay": "Antiviral cellular assay, mutant strain A", "description": "as §1\n(§2) Because of the increasing emergence of drug resistant HIV strains, the present compounds were also tested for their potency against clinically isolated HIV strains harbouring several mutations (Tables 1 and 7). These mutations are associated with resistance to reverse transcriptase inhibitors and result in viruses that show various degrees of phenotypic cross-resistance to the currently commercially available drugs such as for instance AZT, didanosine, nevirapine, lamivudine and zalcibatine."}, "[3]": {"system": "HIV strain B (K103N)", "assay": "Antiviral cellular assay, mutant strain B", "description": "as §1, §2"}, "[4]": {"system": "HIV strain C (L100I; K103N)", "assay": "Antiviral cellular assay, mutant strain C", "description": "as §1, §2"}, "[5]": {"system": "HIV strain D (L100I;K103N)", "assay": "Antiviral cellular assay, mutant strain D", "description": "as §1, §2"}, "[6]": {"system": "HIV strain E (F227C)", "assay": "Antiviral cellular assay, mutant strain E", "description": "as §1, §2"}, "[7]": {"system": "HIV strain F (Y188L)", "assay": "Antiviral cellular assay, mutant strain F", "description": "as §1, §2"}, "[8]": {"system": "HIV strain G (V106A, F227L)", "assay": "Antiviral cellular assay, mutant strain G", "description": "as §1, §2"}, "[9]": {"system": "HIV strain H (K103N, Y181C)", "assay": "Antiviral cellular assay, mutant strain H", "description": "as §1, §2"}, "[10]": {"system": "HIV strain I (K101E, K103N)", "assay": "Antiviral cellular assay, mutant strain I", "description": "as §1, §2"}, "[11]": {"system": "HIV strain J (I31L, L100I, K103N, E138G, Y181C, L214F)", "assay": "Antiviral cellular assay, mutant strain J", "description": "as §1, §2"}, "[12]": {"system": "HIV strain K (multi-mutant incl. M41L, D67N, K103N, Y181C, L210W, T215Y)", "assay": "Antiviral cellular assay, mutant strain K", "description": "as §1, §2"}, "[13]": {"system": "HIV-2", "assay": "Antiviral cellular assay, HIV-2", "settings": "Human immunodeficiency virus 2; read-out: pEC50 towards HIV-2 (converted)", "description": "as §1, with “The toxicity of the compound was measured on the mock-infected cells and was expressed as CC50, which represents the concentration of compound required to inhibit the growth of the cells by 50%. The selectivity index (SI) (ratio CC50/EC50) is an indication of the selectivity of the anti-HIV activity of the inhibitor.” left out\n(§3) Row WT: pEC50 against wild type HlV-LAI strain. The toxicity (Tox) is expressed as the pCC50 value as determined with mock transfected cells. ND means not determined."}, "[14]": {"system": "SIV (simian immunodeficiency virus)", "assay": "Antiviral cellular assay, SIV", "settings": "read-out: pEC50 towards SIV (converted)"}, "[15]": {"assay": "in vitro", "settings": "human", "description": "as §1, with “The toxicity of the compound was measured on the mock-infected cells and was expressed as CC50, which represents the concentration of compound required to inhibit the growth of the cells by 50%. The selectivity index (SI) (ratio CC50/EC50) is an indication of the selectivity of the anti-HIV activity of the inhibitor.” left out\nas §3"}, "[16]": {"settings": "Human immunodeficiency virus 1, MT4, read-out: EC50 value, wild-type HIV-LAI strain"}, "[17]": {"settings": "Human immunodeficiency virus 1, WT, MT4 cells, read-out: pEC50 against wild type HIV-LAI strain (converted)"}, "[18]": {"settings": "EC50 mutant / EC50 wild type, rounded to nearest integer"}}, "note": "Where two headings read alike, the source gives them in different places."}
{"compound": "O=C(O)c1ccc(-n2c(=O)ccc3[nH]c4ccccc4c32)cc1", "note": "[Compound 94]", "values": [{"measurement": "EC50", "setting": "[1]; [16]", "result": "1 to 32", "unit": "µM"}]}
{"compound": "CC(=O)CC1C(C#N)=C(N(C)C)N(c2ccc([N+](=O)[O-])cc2)c2c1n(C)c1ccccc21", "note": "(stereo not shown) [2-(dimethylamino)-4,5-dihydro-5-methyl-1-(4-nitrophenyl)-4-(2-oxopropyl)-1H-pyrido[3,2-b]indole-3-carbonitrile, reference compound]", "values": [{"measurement": "EC50", "setting": "[1]; [17]", "result": 3.16, "unit": "µM"}]}
{"compound": "N#Cc1cc2[nH]c3ccccc3c2n(-c2ccc([N+](=O)[O-])cc2)c1=O", "note": "[Compound 1, 1-(4-nitro-phenyl)-2-oxo-2,5-dihydro-1H-pyrido[3,2-b]indole-3-carbonitrile]", "values": [{"measurement": "EC50", "setting": "[1]; [17]", "result": 0.316, "unit": "µM"}, {"measurement": "fold resistance, mutant A", "setting": "[2]; [18]", "result": "(8)"}, {"measurement": "EC50", "setting": "[2]; Human immunodeficiency virus 1, read-out: pEC50 towards mutant A (converted)", "result": 2510, "unit": "nM"}, {"measurement": "fold resistance, mutant B", "setting": "[3]; [18]", "result": "(4)"}, {"measurement": "EC50", "setting": "[3]; Human immunodeficiency virus 1, read-out: pEC50 towards mutant B (converted)", "result": 1260, "unit": "nM"}, {"measurement": "fold resistance, mutant C", "setting": "[4]; [18]", "result": "(8)"}, {"measurement": "EC50", "setting": "[4]; Human immunodeficiency virus 1, read-out: pEC50 towards mutant C (converted)", "result": 2510, "unit": "nM"}, {"measurement": "fold resistance, mutant D", "setting": "[5]; [18]", "result": "(3)"}, {"measurement": "EC50", "setting": "[5]; Human immunodeficiency virus 1, read-out: pEC50 towards mutant D (converted)", "result": 1000, "unit": "nM"}, {"measurement": "fold resistance, mutant E", "setting": "[6]; [18]", "result": "(6)"}, {"measurement": "EC50", "setting": "[6]; Human immunodeficiency virus 1, read-out: pEC50 towards mutant E (converted)", "result": 2000, "unit": "nM"}, {"measurement": "fold resistance, mutant F", "setting": "[7]; [18]", "result": "(4)"}, {"measurement": "EC50", "setting": "[7]; Human immunodeficiency virus 1, read-out: pEC50 towards mutant F (converted)", "result": 1260, "unit": "nM"}, {"measurement": "fold resistance, mutant G", "setting": "[8]; [18]", "result": "(2)"}, {"measurement": "EC50", "setting": "[8]; Human immunodeficiency virus 1, read-out: pEC50 towards mutant G (converted)", "result": 631, "unit": "nM"}, {"measurement": "fold resistance, mutant H", "setting": "[9]; [18]", "result": "(5)"}, {"measurement": "EC50", "setting": "[9]; Human immunodeficiency virus 1, read-out: pEC50 towards mutant H (converted)", "result": 1580, "unit": "nM"}, {"measurement": "fold resistance, mutant I", "setting": "[10]; [18]", "result": "(3)"}, {"measurement": "EC50", "setting": "[10]; Human immunodeficiency virus 1, read-out: pEC50 towards mutant I (converted)", "result": 794, "unit": "nM"}, {"measurement": "fold resistance, mutant J", "setting": "[11]; [18]", "result": "(5)"}, {"measurement": "EC50", "setting": "[11]; Human immunodeficiency virus 1, read-out: pEC50 towards mutant J (converted)", "result": 1580, "unit": "nM"}, {"measurement": "fold resistance, mutant K", "setting": "[12]; [18]", "result": "(1)"}, {"measurement": "EC50", "setting": "[12]; Human immunodeficiency virus 1, read-out: pEC50 towards mutant K (converted)", "result": 316, "unit": "nM"}, {"measurement": "EC50", "setting": "[13]", "result": 6.31, "unit": "µM"}, {"measurement": "EC50", "setting": "[14]", "result": 7.94, "unit": "µM"}, {"measurement": "CC50 at 5 days", "setting": "[15]", "result": "> 32.4", "unit": "µM"}]}
{"compound": "N#Cc1ccc(-n2c(=O)c(C#N)cc3[nH]c4ccccc4c32)cc1", "note": "[Compound 45]", "values": [{"measurement": "EC50", "setting": "[1]; [16]", "result": "> 32", "unit": "µM"}]}
{"compound": "Cn1c2ccccc2c2c1cc(C#N)c(=O)n2-c1ccc(C#N)cc1", "note": "[Compound 46]", "values": [{"measurement": "EC50", "setting": "[1]; [16]", "result": "1 to 32", "unit": "µM"}]}
{"compound": "O=c1ccc2[nH]c3ccccc3c2n1-c1ccc([N+](=O)[O-])cc1", "note": "[Compound 66]", "values": [{"measurement": "EC50", "setting": "[1]; [16]", "result": "1 to 32", "unit": "µM"}]}
{"compound": "N#Cc1cc2c(c3ccccc3n2C2CCCC2)n(-c2ccc([N+](=O)[O-])cc2)c1=O", "note": "[Compound 10]", "values": [{"measurement": "EC50", "setting": "[1]; [16]", "result": "1 to 32", "unit": "µM"}]}
{"compound": "N#Cc1cc2[nH]c3ccccc3c2n(-c2ccc(F)cc2)c1=O", "note": "[Compound 37]", "values": [{"measurement": "EC50", "setting": "[1]; [16]", "result": "> 32", "unit": "µM"}]}
{"compound": "Cn1c2ccccc2c2c1cc(C#N)c(=O)n2-c1ccc(N)cc1", "note": "[Compound 89]", "values": [{"measurement": "EC50", "setting": "[1]; [16]", "result": "> 32", "unit": "µM"}]}
{"compound": "N#Cc1cc2c(c3ccccc3n2CC(=O)O)n(-c2ccc([N+](=O)[O-])cc2)c1=O", "note": "[Compound 19]", "values": [{"measurement": "EC50", "setting": "[1]; [16]", "result": "1 to 32", "unit": "µM"}]}
{"compound": "Cn1c2ccccc2c2c1cc(Cl)c(=O)n2-c1ccc(C(=O)O)cc1", "note": "[Compound 87]", "values": [{"measurement": "EC50", "setting": "[1]; [16]", "result": "1 to 32", "unit": "µM"}]}
{"compound": "Cn1c2ccccc2c2c1cc(C#N)c(=O)n2-c1ccc(-c2ccco2)cc1", "note": "[Compound 48]", "values": [{"measurement": "EC50", "setting": "[1]; [16]", "result": "1 to 32", "unit": "µM"}]}
{"compound": "CCCCn1c2ccccc2c2c1cc(C#N)c(=O)n2-c1ccc([N+](=O)[O-])cc1", "note": "[Compound 8]", "values": [{"measurement": "EC50", "setting": "[1]; [16]", "result": "< 1", "unit": "µM"}]}
{"compound": "Cn1c2ccccc2c2c1cc(C#N)c(=O)n2-c1cccc([N+](=O)[O-])c1", "note": "[Compound 43]", "values": [{"measurement": "EC50", "setting": "[1]; [16]", "result": "< 1", "unit": "µM"}]}
{"compound": "Cn1c2ccccc2c2c1ccc(=O)n2-c1ccc(C#N)cc1", "note": "[Compound 96]", "values": [{"measurement": "EC50", "setting": "[1]; [16]", "result": "1 to 32", "unit": "µM"}]}
